Assay results as given in paper PMC9061857, “A fluorogenic probe for granzyme B enables in-biopsy evaluation and screening of response to anticancer immunotherapies” (Nature Communications, 2022).
Where no end group is shown, it is not given here.

What was measured:
E0771 cells = experiment: Flow cytometry of E0771 cells in co-culture with CD8+ T cells; type: cell-based, mouse; conditions: H5 5 μM
Experimental: Treatments with staurosporine (1 μM) were for 1 h. […]
mouse CD8+ T cells and mKate-E0771 cells. b) Representative flow cytometry contour plots of E0771 cells in: left) co-cultures of E0771 cells (50,000 cells well-1) and activated […]
cells well-1), right) E0771 alone cells treated with staurosporine (1 µM, 1 h). c) Representative flow cytometry contour plots of CD8+ T cells in: left) co-cultures of E0771 […]
2 h) murine CD8+ T cells (200,000 cells well -1). All cultures in b) and c) were equally […]
with and without preincubation of the GzmB inhibitor Ac -IEPD-CHO. Data presented as […]
633/670 nm (for AF647-Annexin V). Representative plots from independent experiments performed in triplicate. Source data in d provided as a Source Data file.

human GzmB (hGzmB) = target: T1, human GzmB (hGzmB) (Homo sapiens, UniProt P10144); experiment: Fluorescence assay with recombinant hGzmB (fluorogenic response, time course); type: biochemical; conditions: for t50: probe 25 μM, hGzmB 20 nM
T1 construct: For active GzmB vs pro-GzmB, p < 0.0001
T1 sequence (P10144 21-247): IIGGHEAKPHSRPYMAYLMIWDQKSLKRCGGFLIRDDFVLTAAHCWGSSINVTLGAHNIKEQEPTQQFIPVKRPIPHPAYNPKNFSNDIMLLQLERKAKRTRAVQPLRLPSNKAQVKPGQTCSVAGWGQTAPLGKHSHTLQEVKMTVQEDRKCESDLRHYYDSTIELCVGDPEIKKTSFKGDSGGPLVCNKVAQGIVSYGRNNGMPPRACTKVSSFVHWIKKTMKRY
Experimental: Fluorescence-based assays with different enzymes were performed in the appropriate buffers. Probes (25 μM) were added to enzymes (20 nM or at the indicated concentrations) in 384-well plates and their fluorescence emission was recorded at 450 nm (for AMC) or 510 nm (for BODIPY) at 37 °C using a Synergy H1 Hybrid spectrophotometer. In experiments with Ac-IEPD-CHO (50 μM), the inhibitor was preincubated for 1 h with GzmB before the addition of any probe.

recombinant human GzmB = target: T2, recombinant human GzmB (Homo sapiens, UniProt P10144); experiment: Kinetic measurements (Michaelis-Menten) with recombinant hGzmB; type: biochemical; parameters: cleavage rate of H5 by hGzmB: unit not given here
T2 construct: For active GzmB vs pro-GzmB, p < 0.0001
T2 sequence (P10144 21-247): as above
Experimental: Fluorescence-based assays with different enzymes were performed in the appropriate buffers. […] In experiments with Ac-IEPD-CHO (50 μM), the inhibitor was preincubated for 1 h with GzmB before the addition of any probe.
Supplementary Table 4. Kinetic values determined for hexapeptides H2-H5 against
Probe Sequence kcat kcat / KM

OVA-EL4 cancer cells = experiment: Time-course flow cytometry of OVA-EL4 cancer cells with OT-I CD8+ T cells; type: cell-based; parameters: unit not given here; conditions: H5 10 μM, Sytox Blue 1 μM
Description: Legends: viable (gray), H5-stained (green), apoptotic (red). […] Black arrows highlight T cells, yellow arrows highlight H5-stained intracellular GzmB puncta. […] Scale bar: 10 μm. f Flow cytometric analysis of OVA-EL4 cancer cells from experiments in e. Data as means ± SEM (n = 3). P-values from two-tailed t-tests. Source data (c, f) provided as a Source Data file.
We utilized CD8+ T cells expressing the OT-I transgenic receptor, which specifically targets cells presenting the OVA-derived […] antigen in the context of H-2kb and co-cultured them with […]-pulsed EL4 cancer cells (Fig. S11). T cells were counterstained with Cell Tracker Orange for ease of identification and incubated with probe H5 and the cell death marker Sytox Blue before time-lapse microscopy.

[1] = hGzmB 20 nM, 37 °C, Michaelis-Menten, n = 3

## IEPDAL [H5, FRET hexapeptide IEPDAL with BODIPY-FL fluorophore at the N-terminal end and Dabcyl quencher]
E0771 cells; E0771-La2-NLR cells cultured with activated T cells
  cancer cells double-stained with H5 and Annexin V-AF647: over 80%
E0771 cells; E0771 alone, staurosporine 1 μM, 1 h, replicate 1
  H5 +ve E0771 cells: 2.3%
E0771 cells; E0771 alone, staurosporine 1 μM, 1 h, replicate 2
  H5 +ve E0771 cells: 1.69%
E0771 cells; E0771 alone, staurosporine 1 μM, 1 h, replicate 3
  H5 +ve E0771 cells: 2.6%
E0771 cells; co-culture with active CD8+ T cells (24 h IL-2), replicate 1
  H5 +ve E0771 cells: 79%
E0771 cells; co-culture with active CD8+ T cells (24 h IL-2), replicate 2
  H5 +ve E0771 cells: 80%
E0771 cells; co-culture with active CD8+ T cells (24 h IL-2), replicate 3
  H5 +ve E0771 cells: 76%
E0771 cells; co-culture with inactive CD8+ T cells (2 h IL-2), replicate 1
  H5 +ve E0771 cells: 17%
E0771 cells; co-culture with inactive CD8+ T cells (2 h IL-2), replicate 2
  H5 +ve E0771 cells: 18%
E0771 cells; co-culture with inactive CD8+ T cells (2 h IL-2), replicate 3
  H5 +ve E0771 cells: 27%
Human GzmB (hGzmB); caspases, granzymes, MMPs, neutrophil elastase, pro-hGzmB
  specificity for hGzmB over other enzymes: minimal response to other enzymes
Human GzmB (hGzmB); Data 1
  t50: 7 min
Human GzmB (hGzmB); Data 2
  t50: 7 min
Human GzmB (hGzmB); Data 3
  t50: 7 min
Recombinant human GzmB; Supplementary Table 4, recombinant human GzmB
  kcat: 117 s⁻¹
Recombinant human GzmB; [1]
  Km: 9.6 µM
  kcat: 117 s⁻¹
Recombinant human GzmB; hGzmB 20 nM, [H5] 1 uM, Data 1
  cleavage rate of H5 by hGzmB: 8.4
Recombinant human GzmB; hGzmB 20 nM, [H5] 1 uM, Data 2
  cleavage rate of H5 by hGzmB: 5.5
Recombinant human GzmB; hGzmB 20 nM, [H5] 1 uM, Data 3
  cleavage rate of H5 by hGzmB: 6.0
Recombinant human GzmB; hGzmB 20 nM, [H5] 5 uM, Data 1
  cleavage rate of H5 by hGzmB: 48.9
Recombinant human GzmB; hGzmB 20 nM, [H5] 5 uM, Data 2
  cleavage rate of H5 by hGzmB: 44.9
Recombinant human GzmB; hGzmB 20 nM, [H5] 5 uM, Data 3
  cleavage rate of H5 by hGzmB: 43.3
Recombinant human GzmB; hGzmB 20 nM, [H5] 7.5 uM, Data 1
  cleavage rate of H5 by hGzmB: 58.5
Recombinant human GzmB; hGzmB 20 nM, [H5] 7.5 uM, Data 2
  cleavage rate of H5 by hGzmB: 69.9
Recombinant human GzmB; hGzmB 20 nM, [H5] 7.5 uM, Data 3
  cleavage rate of H5 by hGzmB: 72.5
Recombinant human GzmB; hGzmB 20 nM, [H5] 10 uM, Data 1
  cleavage rate of H5 by hGzmB: 75.6
Recombinant human GzmB; hGzmB 20 nM, [H5] 10 uM, Data 2
  cleavage rate of H5 by hGzmB: 81.3
Recombinant human GzmB; hGzmB 20 nM, [H5] 10 uM, Data 3
  cleavage rate of H5 by hGzmB: 63.2
Recombinant human GzmB; hGzmB 20 nM, [H5] 12.5 uM, Data 1
  cleavage rate of H5 by hGzmB: 89.7
Recombinant human GzmB; hGzmB 20 nM, [H5] 12.5 uM, Data 2
  cleavage rate of H5 by hGzmB: 89.4
Recombinant human GzmB; hGzmB 20 nM, [H5] 12.5 uM, Data 3
  cleavage rate of H5 by hGzmB: 82.2
Recombinant human GzmB; hGzmB 20 nM, [H5] 15 uM, Data 1
  cleavage rate of H5 by hGzmB: 88.0
Recombinant human GzmB; hGzmB 20 nM, [H5] 15 uM, Data 2
  cleavage rate of H5 by hGzmB: 88.2
Recombinant human GzmB; hGzmB 20 nM, [H5] 15 uM, Data 3
  cleavage rate of H5 by hGzmB: 73.1
Recombinant human GzmB; hGzmB 20 nM, [H5] 17.5 uM, Data 1
  cleavage rate of H5 by hGzmB: 82.4
Recombinant human GzmB; hGzmB 20 nM, [H5] 17.5 uM, Data 2
  cleavage rate of H5 by hGzmB: 92.3
Recombinant human GzmB; hGzmB 20 nM, [H5] 17.5 uM, Data 3
  cleavage rate of H5 by hGzmB: 81.2
Recombinant human GzmB; hGzmB 20 nM, [H5] 20 uM, Data 1
  cleavage rate of H5 by hGzmB: 100.4
Recombinant human GzmB; hGzmB 20 nM, [H5] 20 uM, Data 2
  cleavage rate of H5 by hGzmB: 99.8
Recombinant human GzmB; hGzmB 20 nM, [H5] 20 uM, Data 3
  cleavage rate of H5 by hGzmB: 89.3
OVA-EL4 cancer cells; 0 h, Data 1
  H5+DAPI+ OVA-EL4 cancer cells: 0.47
  H5+DAPI- OVA-EL4 cancer cells: 1.17
  H5-DAPI+ OVA-EL4 cancer cells: 0.04
OVA-EL4 cancer cells; 0 h, Data 2
  H5+DAPI+ OVA-EL4 cancer cells: 0.46
  H5+DAPI- OVA-EL4 cancer cells: 0.35
  H5-DAPI+ OVA-EL4 cancer cells: 0.011
OVA-EL4 cancer cells; 0 h, Data 3
  H5+DAPI+ OVA-EL4 cancer cells: 0.43
  H5+DAPI- OVA-EL4 cancer cells: 0.23
  H5-DAPI+ OVA-EL4 cancer cells: 0.00
OVA-EL4 cancer cells; 1 h, Data 1
  H5+DAPI+ OVA-EL4 cancer cells: 0.60
  H5+DAPI- OVA-EL4 cancer cells: 1.57
  H5-DAPI+ OVA-EL4 cancer cells: 0.03
OVA-EL4 cancer cells; 1 h, Data 2
  H5+DAPI+ OVA-EL4 cancer cells: 0.80
  H5+DAPI- OVA-EL4 cancer cells: 1.83
  H5-DAPI+ OVA-EL4 cancer cells: 0.053
OVA-EL4 cancer cells; 1 h, Data 3
  H5+DAPI+ OVA-EL4 cancer cells: 0.49
  H5+DAPI- OVA-EL4 cancer cells: 1.53
  H5-DAPI+ OVA-EL4 cancer cells: 0.026
OVA-EL4 cancer cells; 2 h, Data 1
  H5+DAPI+ OVA-EL4 cancer cells: 0.82
  H5+DAPI- OVA-EL4 cancer cells: 3.01
  H5-DAPI+ OVA-EL4 cancer cells: 0.047
OVA-EL4 cancer cells; 2 h, Data 2
  H5+DAPI+ OVA-EL4 cancer cells: 0.66
  H5+DAPI- OVA-EL4 cancer cells: 2.90
  H5-DAPI+ OVA-EL4 cancer cells: 0.06
OVA-EL4 cancer cells; 2 h, Data 3
  H5+DAPI+ OVA-EL4 cancer cells: 0.58
  H5+DAPI- OVA-EL4 cancer cells: 2.81
  H5-DAPI+ OVA-EL4 cancer cells: 0.038
OVA-EL4 cancer cells; 3 h, Data 1
  H5+DAPI+ OVA-EL4 cancer cells: 2.18
  H5+DAPI- OVA-EL4 cancer cells: 2.12
  H5-DAPI+ OVA-EL4 cancer cells: 0.05
OVA-EL4 cancer cells; 3 h, Data 2
  H5+DAPI+ OVA-EL4 cancer cells: 1.34
  H5+DAPI- OVA-EL4 cancer cells: 2.16
  H5-DAPI+ OVA-EL4 cancer cells: 0.07
OVA-EL4 cancer cells; 3 h, Data 3
  H5+DAPI+ OVA-EL4 cancer cells: 1.51
  H5+DAPI- OVA-EL4 cancer cells: 1.83
  H5-DAPI+ OVA-EL4 cancer cells: 0.06
OVA-EL4 cancer cells; 4 h, Data 1
  H5+DAPI+ OVA-EL4 cancer cells: 3.60
  H5+DAPI- OVA-EL4 cancer cells: 0.63
  H5-DAPI+ OVA-EL4 cancer cells: 0.09
OVA-EL4 cancer cells; 4 h, Data 2
  H5+DAPI+ OVA-EL4 cancer cells: 3.55
  H5+DAPI- OVA-EL4 cancer cells: 0.46
  H5-DAPI+ OVA-EL4 cancer cells: 0.05
OVA-EL4 cancer cells; 4 h, Data 3
  H5+DAPI+ OVA-EL4 cancer cells: 2.80
  H5+DAPI- OVA-EL4 cancer cells: 0.60
  H5-DAPI+ OVA-EL4 cancer cells: 0.026
OVA-EL4 cancer cells; 5 h, Data 1
  H5+DAPI+ OVA-EL4 cancer cells: 8.18
  H5+DAPI- OVA-EL4 cancer cells: 0.17
  H5-DAPI+ OVA-EL4 cancer cells: 0.053
OVA-EL4 cancer cells; 5 h, Data 2
  H5+DAPI+ OVA-EL4 cancer cells: 8.22
  H5+DAPI- OVA-EL4 cancer cells: 0.12
  H5-DAPI+ OVA-EL4 cancer cells: 0.10
OVA-EL4 cancer cells; 5 h, Data 3
  H5+DAPI+ OVA-EL4 cancer cells: 16.90
  H5+DAPI- OVA-EL4 cancer cells: 0.10
  H5-DAPI+ OVA-EL4 cancer cells: 0.14
OVA-EL4 cancer cells; 6 h, Data 1
  H5+DAPI+ OVA-EL4 cancer cells: 11.60
  H5+DAPI- OVA-EL4 cancer cells: 0.09
  H5-DAPI+ OVA-EL4 cancer cells: 0.10
OVA-EL4 cancer cells; 6 h, Data 2
  H5+DAPI+ OVA-EL4 cancer cells: 10.50
  H5+DAPI- OVA-EL4 cancer cells: 0.11
  H5-DAPI+ OVA-EL4 cancer cells: 0.10
OVA-EL4 cancer cells; 6 h, Data 3
  H5+DAPI+ OVA-EL4 cancer cells: 18.10
  H5+DAPI- OVA-EL4 cancer cells: 0.076
  H5-DAPI+ OVA-EL4 cancer cells: 0.07
